Source: ChEMBL document CHEMBL1156829 (Proc Natl Acad Sci U S A, 2008)

Experiments:
Plasmodium falciparum [1] = experiment: NOVARTIS: Inhibition of Plasmodium falciparum 3D7 (drug-susceptible) proliferation in erythrocyte-based infection assay; format: functional, organism-based; settings: Plasmodium falciparum, 3D7
Plasmodium falciparum [2] = experiment: NOVARTIS: Inhibition of Plasmodium falciparum W2 (drug-resistant) proliferation in erythrocyte-based infection assay; format: functional, organism-based; settings: Plasmodium falciparum, W2; read-out: EC50
[3] = NOVARTIS: Cytotoxicity against human hepatocellular carcinoma cell line (Huh7); format: toxicity, cell-based, Huh-7; settings: Huh7 cells (hepatocellular carcinoma cell line)

SMILES | EC50 (Plasmodium falciparum [1]) [nM] | EC50 (Plasmodium falciparum [2]) [nM] | CC50 [3] [nM]
CCC(C)NC(=O)c1c[nH]c2ccc(S(=O)(=O)N(C)c3cc(C)ccc3C)cc2c1=O (stereo unspecified) | 5220 | 2170 | 59300
CCN1/C(=C/c2sc3ccc(I)cc3[n+]2CC)C=Cc2ccccc21 | 550 | 364 | > 10000
COc1cc(Cl)c(C)cc1NC(=O)C1c2ccccc2C(=O)N(CC(C)C)C1c1cccs1 (stereo unspecified) | 578 | 373 | > 100000
COc1ccc2c(c1)C(=NN=C(N)N)c1cc(OC)ccc1-2 | 123 | 178 | > 10000
Cc1ccc2nc(Cl)c3cc(C(=O)Nc4ccc(CN5CCC(C)CC5)cc4)sc3c2c1 | 45.1 | 64.9 | > 75800
CCn1ccccc1=Nc1cccc[n+]1CC | 1500 | 1170 | > 73200
CCCCC(CC)C(=O)NCCCCNc1ccnc2cc(Cl)ccc12 (stereo unspecified) | 297 | < 13.4 | > 10100
CC(C)(c1ccc(Oc2ccc(NC(=O)c3ccccc3)cc2)cc1)c1cccc(Oc2ccc(NC(=O)c3ccccc3)cc2)c1 | 1560 | 1770 | > 10000
COC(=O)[C@@H]1C[C@@H](NC(=O)c2ccc(OC)cc2)CN1CC(c1ccccc1)c1ccccc1 | 1150 | < 25.7 | > 4170
CCn1c(CNc2ccc(Cl)cc2)nnc1SCC(=O)Nc1cccc(C)c1C | > 1250 | 26.7 | > 10000
C=CC1CN2CCC1CC2C(OC(=O)c1ccco1)c1ccnc2ccccc12 (stereo unspecified) | 35.7 | 181 | 41800
O=C(NCCC1=CCCCC1)c1ccc2c(=O)n(-c3ccccc3)c(SCc3nc4ccccc4[nH]3)nc2c1 | > 1250 | 1460 | > 912
Cc1cc(C)c2c(c1)OC(N)(C(Cl)(Cl)Cl)CC2=O (stereo unspecified) | 435 | 260 | > 100000
CCCCCCN(C(=O)c1ccc(C(C)(C)C)cc1)C(CC)c1nc2ccccc2c(=O)n1-c1ccccc1OC (stereo unspecified) | 356 | 348 | > 10000
CC(=O)Nc1cc(C(=O)Nc2ccc(C3=NCCN3)cc2)ccc1C(=O)Nc1ccc(C2=NCCN2)cc1 | 323 | 103 | > 100000
C[n+]1cccc(CNC2=C(Cl)C(=O)c3ccccc3C2=O)c1 | 127 | 213 | > 10000
COCCNC(=O)[C@@H]1C[C@@H](Sc2nc3ccccc3[nH]2)CN1Cc1ccc2ccccc2c1 | 638 | 135 | > 100000
C[N+]1(CC(=O)NNc2c3ccccc3nc3ccccc23)CCOCC1 | 637 | 364 | > 100000
Cc1cc(C)c(C(Nc2ccccn2)c2ccc3cccnc3c2O)c(C)c1 (stereo unspecified) | 3180 | 1070 | > 67900
CC(=O)N(C1=C(N2CCOCC2)C(=O)c2ccccc2C1=O)c1cc(C)cc(C)c1 | 40.1 | 63.3 | 6940
CCCCCN(C(=O)c1cccc(C(F)(F)F)c1)C(CC)c1nc2ccccc2c(=O)n1-c1ccccc1OC (stereo unspecified) | 728 | 673 | > 10000
COc1ccc2nc(C)cc(Nc3cccc(Cl)c3)c2c1 | 371 | 1100 | 50200
CC(=O)Nc1ccc(C(C)=NNc2nc(Nc3cc(C)ccc3C)nc(N3CCOCC3)n2)cc1 | > 1250 | 2060 | > 10000

SMILES | EC50 (Plasmodium falciparum [1]) [nM] | EC50 (Plasmodium falciparum [2]) [nM] | CC50 [3] [nM]
Brc1ccc(-c2cn3c([n+]2Cc2ccccc2)SCCC3)cc1 | 413 | 2450 | 53300
CCOC(=O)c1cc(-c2ccc(OC)cc2)n(CCC(=O)Nc2cccc(C(C)=O)c2)c1C | 21.8 | 8.49 | > 100000
CCCCCN(C(=O)c1cccc([N+](=O)[O-])c1)C(CC)c1nc2ccccc2c(=O)n1-c1ccccc1OC (stereo unspecified) | > 1250 | 591 | > 10000
Cc1nnc2sc(SCc3cccc([N+](=O)[O-])c3)nn2c1=O | > 1070 | 942 | > 13900
O=C(O)C1Cc2c([nH]c3ccccc23)C(c2ccc(Cl)cc2Cl)N1 (stereo unspecified) | 1020 | 688 | > 100000
Cc1cc(C)c2cc(CN(CCN(C)C)C(=S)NCCCN(C)C)c(=O)[nH]c2c1 | 2010 | 2150 | > 100000
Cc1cc(I)ccc1N1C(=O)C2C3c4ccccc4C(CO)(c4ccccc43)C2C1=O (stereo unspecified) | > 11200 | > 10100 | > 67900
Cc1ccc(C[n+]2cc(-c3ccc(C)cc3)n3c2CCC3)cc1 | 538 | 240 | 34500
COc1cc(NC(C)CCCN(Cc2ccc(OC)c(OC)c2)C(=O)CC(C)CC(C)(C)C)c2ncccc2c1 (stereo unspecified) | 1040 | 640 | 5890
Cc1nc(NN=Cc2c(O)ccc3ccccc23)cc(N2CCCCC2)n1 | 609 | 339 | > 100000
COc1cc(OC)cc(C(=O)N2CCN(c3ccccn3)CC2)c1 | > 1250 | > 1130 | > 10000
O=C(c1cc([N+](=O)[O-])cc([N+](=O)[O-])c1)N1CCN(c2cccc(C(F)(F)F)c2)CC1 | 1180 | 1100 | > 10000
CC(C)(C)C(=O)NCCNc1ccc([N+](=O)[O-])cc1C(F)(F)F | 2260 | 1110 | > 100000
CCC(Oc1ccc(C(C)(C)CC)cc1C(C)(C)CC)C(=O)Nc1ccc([N+](=O)[O-])cc1O (stereo unspecified) | > 5260 | 348 | > 100000
O=C(Nc1ccc(F)c(F)c1)c1cc2cc(C3(O)CCN(Cc4ccccc4F)CC3)ccc2o1 | 1500 | 1850 | 12800
CCOC(=O)C(C)Oc1cccc2c(=O)n(CC(=O)Nc3ccc(OC(F)(F)F)cc3)ccc12 (stereo unspecified) | > 1250 | > 1220 | > 10000
Cc1ccc(NC(=O)C2CSC(c3cccc(F)c3)N2C(=O)c2ccc(C(C)(C)C)cc2)cc1 (stereo unspecified) | 449 | 349 | > 100000
Cc1cccc(N(C)c2ccnc3c(-c4cccc(C(N)=O)c4)cnn23)c1 | > 843 | > 1250 | > 10000
CCc1nc2nc(C)cc(Nc3ccc(I)cc3)n2n1 | 260 | < 3 | > 100000
CCOC(=O)c1c(S(=O)(=O)Nc2ccc(C(C)(C)C)cc2)c(-c2ccccc2)n(-c2ccccc2)c1C | 696 | 425 | > 100000
CCOC(=O)c1cnc2cc(OCC3CC3)c(OCC3CC3)cc2c1O | < 5.72 | < 0.0706 | > 100000
Cc1onc(-c2ccccc2)c1C(=O)N1CCC(CNc2c(-c3ccoc3)nc3ccccn23)CC1 | 1760 | 225 | 96600
Cc1nc2c(c(C)nn2C)c(C)c1CCC(=O)N1CCCC1 | 360 | < 15.8 | > 6850

SMILES | EC50 (Plasmodium falciparum [1]) [nM] | EC50 (Plasmodium falciparum [2]) [nM] | CC50 [3] [nM]
CC(C)CCn1nc(C(=O)N2CCOCC2)c2c1CCN(C(=O)c1ccc(N3CCOCC3)cc1)C2 | > 11800 | 3960 | > 100000
Cc1ccc(Cn2c(N3CCC(C(=O)NCc4cccs4)CC3)nc3ccccc32)cc1 | 529 | 271 | > 100000
COc1ccc(C2CC(=O)C3=C(C2)NC(C)=C(C(=O)OC(C)C)C3c2ccc([N+](=O)[O-])cc2)cc1OC (stereo unspecified) | 31.9 | 31.8 | > 100000
COc1ccc(N(CC(=O)NCCc2ccc(F)cc2)S(=O)(=O)c2ccccc2)cc1 | > 12500 | 5620 | > 100000
O=C1Nc2ccccc2C1=Nc1ccccc1NS(=O)(=O)c1ccc2ccccc2c1 | > 1250 | > 857 | > 10000
O=c1cc[nH]c2cc(N3CCCCCC3)c(F)cc12 | 1310 | 497 | > 92000
O=S(=O)(c1ccc(Cl)cc1)N1CCN(C(=S)NCC2CCCO2)CC1 (stereo unspecified) | 653 | 149 | > 100000
Clc1cc(C=NNC2=NCCCN2)cc(Cl)n1 | 247 | > 718 | > 10000
CCCCC(CC)C(=O)N1CCN(C(C)c2nc3ccc(Cl)cc3c(=O)n2C)CC1 (stereo unspecified) | > 1490 | 1810 | > 10000
CC1(C)N=C(N)N=C(N)N1c1ccccc1 | 174 | 988 | > 83700
CCOC(=O)c1ccc(NC(=O)CSc2nc(NCc3ccccc3)c3ccccc3n2)cc1 | > 1140 | > 836 | > 10000
Cc1cc(Nc2ccc(N(C)C)cc2)n2ncnc2n1 | 6000 | 2270 | > 100000
CC1CCN(S(=O)(=O)c2ccc(C(=O)Nc3sc4c(c3C(N)=O)CCN(C)C4)cc2)CC1 | > 1250 | > 665 | > 10000
COc1cc(/C=C2/SC(=Nc3ccccc3)NC2=O)ccc1OC(=O)c1ccccc1 | > 933 | 696 | > 10000
O=C1NN(c2ccc(Br)cc2)C(=O)/C1=C\c1c(O)ccc2ccccc12 | 856 | 653 | > 10000
CC1CCN(C(=O)CSc2nc(NCc3ccccc3)c3ccccc3n2)CC1 | 673 | > 1580 | > 10000
c1ccc(Cc2nc(NCc3ccc4c(c3)OCO4)c3c4c(sc3n2)CCCC4)cc1 | > 1250 | > 1130 | > 10000
CCOC(=O)c1c(N)n(-c2ccc(CC)cc2)c2nc3ccccc3nc12 | 797 | 823 | > 100000
OC(CN1CCN(CC(O)Cn2c3ccccc3c3cc(Br)ccc32)CC1)Cn1c2ccccc2c2ccccc21 (stereo unspecified) | > 1260 | 576 | > 10000
Cc1nc(NCCCN(C)C)c2sc3nc4c(cc3c2n1)COC(C)(C)C4 | > 12500 | 1630 | > 100000
c1ccc(Cn2nnnc2CN2CCN(C(c3ccccc3)c3ccccc3)CC2)cc1 | 2870 | 1670 | > 100000
